Results taken from patent publication US9464092B2, “Transient protection of normal cells during chemotherapy” (G1 Therapeutics, Inc., priority 2013, dated 2016).

How the values were obtained:
[1] = tested on: hematopoietic cells (bone marrow); experiment: EdU incorporation in hematopoietic cell lineages of C57Bl/6 mice; format: in vivo; settings: 150 mg/kg oral gavage, 12 hours
Method: Ten-hours later, all mice were given a single i.p. injection of 100 mcg EdU (5-ethynyl-2′-deoxyuridine) to label cells in S-phase of the cell cycle. All treated mice were euthanized 2 hours after EdU injection, bone marrow cells were harvested and processed for flow cytometric analysis of EdU-incorporation (FIG. 13).

blood cell counts [2] = experiment: 5FU-induced myelosuppression, single dose; format: in vivo, FVB/n female mice; settings: 150 mg/kg oral, 30 minutes before 5FU 150 mg/kg i.p.
Method: Complete blood cell counts were measured every two days starting on day six.

[3] = tested on: human renal proximal tubule cells; experiment: γ-H2AX assay in renal proximal tubule cells with cisplatin; format: cell-based; settings: 10 nM-1 uM with 25 uM cisplatin
Method: Normal renal proximal tubule epithelial cells were obtained from American Type Culture Collection (ATCC, Manassas, Va.). Cells were grown in an incubator at 37° C. in a humidified atmosphere of 5% CO2 in Renal Epithelial Cell Basal Media (ATCC) supplemented with Renal Epithelial Cell Growth Kit (ATCC) in 37° C. humidified incubator. […] For the γ-H2AX assay, cells were fixed, permeabilized, and stained with anti-γ-H2AX as per the γ-H2AX Flow Kit (Millipore) and quantitated by flow cytometry. Data was analyzed using FlowJo 2.2 software developed by TreeStar, Inc. Caspase 3/7 activation was measured using the Caspase-Glo 3/7 Assay System (Promega, Madison, Wis.) by following the manufacturer's instructions.

[4] = Metabolic stability in liver microsomes; format: in vitro ADME, human, dog, rat, monkey, and mouse; settings: each of the species tested
Method: Human, mouse, and dog liver microsomes were purchased from Xenotech, and Sprague-Dawley rat liver microsomes were prepared by Absorption Systems. The reaction mixture comprising 0.5 mg/mL of liver microsomes, 100 mM of potassium phosphate, pH 7.4, 5 mM of magnesium chloride, and 1 uM of test compound was prepared. The test compound was added into the reaction mixture at a final concentration of 1 uM. An aliquot of the reaction mixture (without cofactor) was incubated in shaking water bath at 37 deg. C. for 3 minutes. The control compound, testosterone, was run simultaneously with the test compound in a separate reaction. The reaction was initiated by the addition of cofactor (NADPH), and the mixture was then incubated in a shaking water bath at 37 deg. C. Aliquots (100 μL) were withdrawn at 0, 10, 20, 30, and 60 minutes for the test compound and 0, 10, 30, and 60 minutes for testosterone. […] Test compound samples were analyzed using the Orbitrap high resolution mass spectrometer to quantify the disappearance of parent test compound and detect the appearance of metabolites. […] Half-lives were calculated using GraphPad software, fitting to a single-phase exponential decay equation.
When calculated half-life was longer than the duration of the experiment, the half-life was expressed as >the longest incubation time. The calculated half-life is also listed in parentheses. […]

[5] = tested on: A2058 cells (CDK4/6-independent cell line); experiment: Cell cycle arrest by propidium iodide flow cytometry, A2058; format: cell-based, human; settings: 300 nM, 24 hours
Text: (§1) To test the ability of Cdk4/6 inhibitors to induce a clean G1-arrest, a cell based screening method was used consisting of two Cdk4/6-dependent cell lines (tHS68 and WM2664; Rb-positive) and one Cdk4/6-independent (A2058; Rb-negative) cell line. […] At the conclusion of the experiment, cells were harvested, fixed, and stained with propidium iodide (a DNA intercalator), which fluoresces strongly red (emission maximum 637 nm) when excited by 488 nm light. Samples were run on Dako Cyan flow cytometer and >10,000 events were collected for each sample. Data were analyzed using FlowJo 2.2 software developed by TreeStar, Inc.

[6] = tested on: WM2664 cells (CDK4/6-dependent cell line); experiment: Cell cycle arrest by propidium iodide flow cytometry, WM2664; format: cell-based; settings: 300 nM, 24 hours
Text: as §1

tHS68 human fibroblasts = experiment: Protection from chemotherapy-induced cell death (Cell TiterGlo); format: cell-based; settings: etoposide 5 μM or carboplatin 100 μM
Method: Cell survival was determined by Cell TiterGlo assay per manufacturer's recommendations. For both γ-H2AX and caspase 3/7 assays, cells were plated and allowed to become adherent for 24 hours. […] For γ-H2AX, cells were harvested for analysis 8 hours after chemotherapy exposure. For the γ-H2AX assay, cells were fixed, permeabilized, and stained with anti-γ-H2AX as per the γ-H2AX Flow Kit (Millipore) and quantitated by flow cytometry. Data was analyzed using FlowJo 2.2 software developed by TreeStar, Inc. For the in vitro caspase 3/7 assay, cells were harvested 24 hours post chemotherapy treatment. Caspase 3/7 activation was measured using the Caspase-Glo® 3/7 Assay System (Promega) per manufacturer's recommendations.

blood cell counts [7] = experiment: 5FU-induced myelosuppression, repeated cycles; format: in vivo, C57Bl/6 mice; settings: 150 mg/kg oral before 5FU 150 mg/kg i.p., every 21 days for 3 cycles
Text: This was repeated every 21 days for 3 cycles. Blood samples were taken for hematology analysis on Day 10 of Cycles 1-3.

[8] = tested on: 456 (395 non-mutant) kinases; experiment: DiscoveRx KINOMEscan kinase profiling; format: binding; settings: 1000 nM
Method: The compound was screened using a single concentration of 1000 nM (>1000 times the 1050 on Cdk4). Results from this screen confirmed the high potency against Cdk4 and high selectivity versus Cdk2.

[9] = tested on: RB-negative SCLC cell lines (H69, H82, H209, H345, NCI417, or SHP-77); experiment: EdU proliferation, RB-negative SCLC cell lines; settings: 24 hours

## CN1CCN(c2ccc(Nc3ncc4cc5n(c4n3)C3(CCCCC3)CNC5=O)nc2)CC1 [Compound T]
[1]
  inhibition of hematopoietic stem cells (HSC), EdU: 74%
  inhibition of multipotent progenitors (MPP), EdU: 90%
  reduction in EdU+ cell frequency, B cell progenitors: > 80%
  reduction in EdU+ cell frequency, Mac1+G1+ myeloid cells: 46%
  reduction in EdU+ cell frequency, T cell progenitors: > 99%
  reduction in EdU+ cell frequency, Ter119+ erythroid cells: 58%
  reduction in EdU+ cell frequency, lineage restricted myeloid (CMP, GMP and MEP) and lymphoid progenitors (CLP): 76-92%
  reduction of EdU+ cell frequency in unfractionated whole bone marrow cells: ~70%
Blood cell counts [2]
  blood cell counts on day 14 after 5FU: significant protection of each cell type at Day 14
  recovery of hematopoietic cell lineages after 5FU: more rapid recovery
[3]
  DNA damage as measured by γ-H2AX formation: attenuated DNA damage
[4]
  half-life in liver microsomes compared with PD0332991: shorter half-life than PD0332991
[5]
  effect on S-phase peak: does not cause a loss of the S-phase peak
[6]
  effect on S-phase peak: causes a loss of the S-phase peak
tHS68 human fibroblasts
  protection from chemotherapy-induced cell death (cell survival): selective protection from carboplatin and etoposide-induced cell death
Blood cell counts [7]
  myelosuppression after repeated 5FU cycles: reduced the myelosuppression on Day 10 of the third cycle
[8]; inhibitory threshold of 65%
  number of 395 non-mutant kinases inhibited: 92
  percent of 395 non-mutant kinases inhibited: 23.3%
[8]; inhibitory threshold of 90%
  number of 395 non-mutant kinases inhibited: 31
  percent of 395 non-mutant kinases inhibited: 7.8%
[8]; inhibitory threshold of 99%
  number of 395 non-mutant kinases inhibited: 6
  percent of 395 non-mutant kinases inhibited: 1.5%
[9]
  effect on proliferation (EdU, percent of cells in S-phase): does not affect the growth of the Rb-negative cell lines
